Results: US20250375526A1, “IRAK DEGRADERS AND USES THEREOF” (Kymera Therapeutics, Inc., priority 2020, published 2025)

Columns and labels:
IRAK4 = target: T1, IRAK4 (Homo sapiens, UniProt Q9NWZ3); test: OCI-LY10 IRAK MSD assay DC50 (IRAK4 degradation); format: cell-based; conditions: OCI-Ly10 cells, incubated for 4 hr, concentration of compound required to degrade 50% of protein
T1 construct: endogenous in cells; host or cells: OCI-Ly10
T1 sequence (Q9NWZ3 1-460): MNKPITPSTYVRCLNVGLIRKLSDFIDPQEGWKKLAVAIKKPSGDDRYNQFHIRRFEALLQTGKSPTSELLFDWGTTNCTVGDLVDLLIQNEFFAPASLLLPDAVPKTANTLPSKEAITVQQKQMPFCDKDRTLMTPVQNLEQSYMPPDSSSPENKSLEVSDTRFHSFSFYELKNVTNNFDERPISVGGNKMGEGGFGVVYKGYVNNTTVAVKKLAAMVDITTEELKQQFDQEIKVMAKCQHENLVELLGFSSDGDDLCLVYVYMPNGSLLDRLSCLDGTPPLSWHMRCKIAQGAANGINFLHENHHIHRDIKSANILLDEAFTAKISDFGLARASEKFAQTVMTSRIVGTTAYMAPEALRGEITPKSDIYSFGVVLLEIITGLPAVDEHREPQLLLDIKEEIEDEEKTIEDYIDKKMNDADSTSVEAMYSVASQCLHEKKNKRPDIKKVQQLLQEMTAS
Description: A MSD assay is run to determine the concentration of compound required to degrade 50% of protein (DC50).
• Compounds were reconstituted to 10 mM in stock solutions. The stock solutions were diluted to 5 mM and 45 μL of each dilution was transferred to a 384 pp-plate. A 3 fold, 8-point serial dilution was performed by transferring 15 μL of compound into 30 μL DMSO using Janus. • 20 nL of each compound were added into each well of a 96-well plate (Corning3799). • OCI-Ly10 cells were seeded into the 96-well plate at 3.0*10e^5 cells/100 μL/well. • The cell plate was shaken at 720 rpm for 5 min and incubated for 4 hr. • 100 μL of cells were transferred into the 96-PCR plate and spun down at high speed for 5 mins. • The supernatant was discarded and 100 μL of RIPA lysis buffer with proteinase inhibitors was added per well. The plate was then sealed and shaken at 600 rpm and 4° C. for about 20 min. • The plate was then spun down at high speed (about 3200 g) for 30 min and then frozen in a −80° C. fridge. • A bare MSD plate (L15XA-3) was coated with 2 μg/mL of capture antibody (mouse Anti-IRAK4 antibody [2H9], ab119942) in PBS to 40 μL/well and incubated overnight at 4° C.
• The MSD coated plate was washed 3× (150 μL/well) with 1×TBST (CST #9997S). • The MSD plate was then blocked with 150 μL of blocking buffer [3% Blocker A (MSD, R93BA-4) in TBST]/well and shaken for 1 hr at RT and 600 rpm. • The MSD plate was washed 3× (150 μL/well) with 1×TBST. The sample RIPA lysates were then added to the MSD plate (50 μL/well) and shaken for 1 hr at RT and 600 rpm. • The MSD plate was washed 3× (150 μL/well) with 1×TBST and the primary detection antibody (Rabbit Anti-IRAK4 antibody [Y279], ab32511) was added to a final concentration of 1 μg/ml with 25 μL/well. The plate was then shaken for 1 hr at RT and 600 rpm. • The MSD plate was washed 3× (150 μL/well) with 1×TBST and the secondary detection antibody, SULFO-TAG anti-species antibody (Anti Rabbit Antibody (R32AB-5) MSD, R32AB-1) was added to a volume of 25 μL/well at a final concentration of 1 μg/ml. The plate was then shaken for 1 hr at RT and 600 rpm. • The MSD plate was then washed 3× (150 μL/well) with 1×TBST. • 1×MSD reading buffer was then added (150 μL/well) and the plate […].
(MSD, R92TC-2) • The MSD instrument was then read.
The remaining activity was calculated following the formula below:
• The DC50 was calculated by fitting the Curve using Xlfit (v5.3.1.3), equation 201: […]
The letter codes for IRAK4 DC50 indicate the concentration of compound required to degrade 50% of protein: A (<0.01 μM), B (0.01-0.1 μM), C (>0.1-0.2 μM), D (>0.2 μM).

OCI-LY10 cells = test: CellTiter-Glo Luminescent Cell Viability Assay; format: cell-based; conditions: Homo sapiens, 96 h, incubated 4 days, read-out: OCI-LY10 CTG IC50
Description: Compound-mediated viability effect on OCI-LY10 was quantitatively determined using the CellTiter-Glo® Luminescent Cell Viability Assay kit from Promega (Catalog number G7570) following manufacturer's recommended procedures. Briefly, OCI-LY10 cells were seeded into 384 well plates (Grenier Bio-One, Catalog number 781080) with a density of 10,000 cells per well. Compounds were then added to the assay plate with final top concentration of 10 μM and 1:3 dilution series with total of 9 doses. The final DMSO concentration was normalized to 0.2%. The assay plates were incubated at 37° C. for 4 days under 5% CO2. Then the assay plate was equilibrated at room temperature for 10 minutes. To determine cell viability, 30 μL CellTiter Glo reagent was added to each well and the assay plate was centrifuged at 1000 rpm for 30 second, incubated at room temperature for 10 min, and analyzed by detecting the luminescence using a multimode plate reader (EnVision 2105, PerkinElmer). The data was then analyzed by software Prism 7.0 from GraphPad and the dose response curves were fit using a three-parameter logistic equation to calculate IC50.
The letter codes for OCI-LY10 CTG IC50 include: A (<1 μM), B (1-10 μM), C (>10 μM).

DC50 (IRAK4) [nM]	IC50 (OCI-LY10 cells) [nM]	SMILES
< 10	1000 to 10000	CN(C[C@H]1CC[C@H](n2cc3cc(NC(=O)c4cccc(C(F)(F)F)n4)c(C(C)(C)O)cc3n2)CC1)C1CCN(c2cccn3c(N4CCC(=O)NC4=O)cnc23)CC1 [I-4]
< 10	1000 to 10000	O=C1CCN(c2cncc3c(C#CCOC4CCN(C[C@H]5CC[C@H](n6cc(NC(=O)c7cnn8ccc(N9C[C@H]%10C[C@@H]9CO%10)nc78)c(C(F)F)n6)CC5)CC4)cccc23)C(=O)N1 [I-9]
> 200	1000 to 10000	O=C1CCN(c2cncc3cc(C#CCOC4CCN(C[C@H]5CC[C@H](n6cc(NC(=O)c7cnn8ccc(N9C[C@H]%10C[C@@H]9CO%10)nc78)c(C(F)F)n6)CC5)CC4)ccc23)C(=O)N1 [I-16]
< 10	1000 to 10000	CC(C)(O)c1cc2nn([C@H]3CC[C@H](CN4CCC(c5cccn6c(N7CCC(=O)NC7=O)cnc56)CC4)CC3)cc2cc1NC(=O)c1cccc(C(F)(F)F)n1 [I-23]
< 10	1000 to 10000	O=C1CCN(c2cnc3c(C#CCOC4CCN(C[C@H]5CC[C@H](n6cc(NC(=O)c7cnn8ccc(N9C[C@H]%10C[C@@H]9CO%10)nc78)c(C(F)F)n6)CC5)CC4)cccn23)C(=O)N1 [I-24]
< 10	< 1000	COc1cc2nn([C@H]3CC[C@H](CN(C)C4CCN(c5cccn6c(N7CCC(=O)NC7=O)cnc56)CC4)CC3)cc2cc1NC(=O)c1cccc(C(F)(F)F)n1 [I-25]
10 to 100	< 1000	COc1cc2nn([C@H]3CC[C@H](CN4CCC(c5cccn6c(N7CCC(=O)NC7=O)cnc56)CC4)CC3)cc2cc1NC(=O)c1cccc(C(F)(F)F)n1 [I-26]
< 10	< 1000	COc1cc2nn([C@H]3CC[C@H](CN(C)C4CCN(c5ccn6c(N7CCC(=O)NC7=O)cnc6c5)CC4)CC3)cc2cc1NC(=O)c1cccc(C(F)(F)F)n1 [I-31]
> 200	< 1000	O=C1CCN(c2cnc3cc(C4CCN(C[C@H]5CC[C@H](n6cc7cc(NC(=O)c8cccc(C(F)(F)F)n8)ccc7n6)CC5)CC4)ccn23)C(=O)N1 [I-32]
10 to 100	> 10000	CC(C)(O)c1cc2nn([C@H]3CC[C@H](CNCCOCCOCC#Cc4ccn5c(N6CCC(=O)NC6=O)cnc5c4)CC3)cc2cc1NC(=O)c1cccc(C(F)(F)F)n1 [I-34]
